Measurements from patent US20250170137A1, “Compositions for preventing or treating heart failure (HF)” (CHONG KUN DANG PHARMACEUTICAL CORP., priority 2022, published 2025).

Legend:
[1] = system: acetyl tubulin in H9c2 cells; assay: Effect on acetyl tubulin in H9c2 cells (western blot); type: cell-based, Rat; settings: treated for each concentration, four hours at 37° C., western blot vs GAPDH (FIGS. 1 and 2)
Method: H9c2 (2.0×10^5 cells/well, Rat, heart, myoblast) cells were seeded in a six-well plate and treated with drugs (compounds 43, 295, 296, 40, 239, and 285) for each concentration. In four hours later at 37° C., proteins were extracted with lysis buffer and quantified by Bradford method. […] of proteins were dissolved in sample buffer, electrophoresed on 4-12% gradient gel, transferred to a nitrocellulose membrane for seven minutes, and blocked in 3% BSA solution for one hour. Anti-acetyl tubulin (1:1,000) and GAPDH (1:2,000) were added to a 3% BSA solution, after which the membrane was immersed therein and reacted at 4° C. for 10 hours, and then washed three times with 1×TBST for 10 minutes each. IgG-HRP antibody (1:5,000) was added to 5% BSA, after which the membrane was immersed therein and reacted at room temperature for one hour, and then washed three times with 1×TBST for 10 minutes each.

[2] = system: isolated rabbit heart; assay: Langendorff evaluation of ventricular functions in heart damage mimicking conditions (Tachycardia pacing)
Description: The Langendorff test method was used to evaluate the therapeutic effect of the compound on heart damage. The Langendorff test method is known as a test method that helps to determine the direct effect of the compound on the heart in terms of efficacy and safety. In particular, the method is easy to measure actual cardiac contractility and heart rates by removing peripheral hemodynamic variables that may extracardially interfere in experimental animals, and has the advantage of being able to intensively investigate a correlation between chemical structure and pharmacological action using various doses of the compound.
(§1) The male rabbits were anesthetized by breathing, and the hearts were removed therefrom. After removing the connective tissues, the hearts were perfused with 37° C. physiological solution (modified KrebsHenseleit bicarbonate buffer; composition: 116 mM/L NaCl, 4.7 mM/L KCl, 1.1 mM/L MgSO4, 1.17 mM/L KH2PO4, 24.9 mM/L NaHCO3, 2.52 mM/L CaCl2), 8.32 mM/L glucose) saturated with 95% O2/5% CO2 under constant pressure perfusion, and electrodes were connected at the atrium and ventricle so as to confirm a stabilization state by measuring an electrocardiogram for one hour.
After confirming the stabilization state of the heart for one hour through an electrocardiogram, a heart damage stimulation with 50 Hz tachycardia pacing was applied for 30 minutes. After measuring the electrocardiogram of the atrium and ventricle, a test target compound (compound 43: the compound of […]) was administered to physiological solution, and the electrocardiogram was measured in one hour later. In order to check whether a drug effect is maintained even after the compound is removed from the physiological solution, the physiological solution containing the compound, in which the rabbit heart was immersed, was washed out, and the physiological solution without the compound was administered, so as to measure the electrocardiogram in one hour later.
The effect of the compound on improving ventricular functions was analyzed in ex vivo heart damage mimicking conditions (Tachycardia pacing), and the results thereof are shown in FIGS. 3 and 4 and Table 1. In above FIG. 4, ** on the graph may refer to P<0.01 when compared with the normal group(Sham), and ## may mean P<0.01 when compared with Tachycardia pacing (Comparative group, vehicle).

[3] = system: beagle dogs with induced heart disease; assay: Anti-fibrotic activity in tachycardia pacing heart disease model (western blot of cardiac tissue); type: in vivo, beagle dog; settings: 1 mg/kg capsule, Bid, P.O.; tachycardia pacing 400 bpm; compared to group not dosed (FIG. 7)
Method: For the introduction of anesthetic to the beagle dogs (male, 11 months old), pentobarbital (25 mg/kg) was intravenously administered thereto, and anesthesia was maintained through Isoflurane. A pacemaker's in vivo implantable electrode (bipolar pacing lead, Medtronic, IRE) was placed in the right atrial appendage by using C-arm (ARCADIS Varic, SIEMENS Co.) equipment and vascular contrast media, and then it was checked if the same was correctly inserted through a contrast image, and then the pacemaker's lead was fixed in the right atrial appendage. After stabilization for one week after surgery, the pacemaker was operated at 400 bpm to confirm normal induction by electrocardiography, and then tachycardia pacing was induced. Hemodynamic parameters for each group were measured. […]
In order to confirm the effect of the compound according to the present disclosure on preventing or treating heart failure disease, the expression of α-SMA and TGF-β, which are directly related to fibrosis in cardiac tissues, was analyzed. […] The expression of α-SMA and TGF-β was analyzed for each protein through western blot, so as to compare the degree of cardiac fibrosis between groups, and the results thereof are shown in FIG. 7.

[4] = system: isolated heart of normal rabbits; assay: Langendorff evaluation of heart safety (Q-T interval of ECG); set-up: species or system Rabbit; settings: for Q-T interval: normal rabbit heart, ECG 30 minutes later, n = 6, mean ± standard error; for effect on QT interval compared to normal ECG (in words): dofetilide 0.3 μM and 1 μM, compound 43 1 μM (FIGS. 5 and 6)
Method: as §1
After confirming the stabilization state of the heart through the electrocardiogram for one hour, the compound was administered to the physiological solution, and the electrocardiogram was measured in 30 minutes later so as to analyze the Q-T interval.
Using dofetilide as a control drug, the effect of the compound according to the present disclosure (compound 43: compound of Synthesis Example 1) on the QT interval of ECG was confirmed in normal rabbits.
Rabbits were prepared under the same conditions as in 1) and divided into a normal group, a dofetilide-treated group, and a compound 43-treated group, after which the hearts of the rabbits were extracted according to the Langendorff experimental method in 2-2), so as to analyze the Q-T interval according to 2-3), and the results thereof are shown in FIGS. 5 and 6 and in Tables 2 and 3 below. In above FIGS. 5 and 6 and Tables 2 and 3, the Control may refer to a normal group, and all data values in Tables 2 and 3 are expressed as mean standard error.

[5] = system: iPSC-CM myocardial cells derived from patients with dilated cardiomyopathy (DCMP) heart failure; assay: Ca2+ transient activity in DCMP iPSC-CM accompanied by TPM1 mutation; type: cell-based, human; settings: 0.1-3 μM for 24 hours, 3 Hz stimulation 24 hours, Fluo-4 (FIG. 9)
Method: In order to confirm the effect of the compound according to the present disclosure on preventing or treating heart failure disease, Ca^2+ transients in iPSC-CM myocardial cells derived from patients with dilated cardiomyopathy (DCMP) heart failure were analyzed.
Myocardial cells derived from patients with heart failure were treated with compound 43 (Synthesis Example 1) for each concentration for 24 hours. After that, 3 Hz stimulation was given to both iPSC-CM myocardial cells derived from normal people (normal group, Normal) and iPSC-CM myocardial cells derived from patients with dilated cardiomyopathy (DCMP) heart failure for 24 hours in heart damage mimicking conditions (Tachycardia pacing). After each group was treated with Fluo-4 (AM, cell permeant-Thermo Fisher Scientific), a cell-permeable calcium dye, Ca^2+ images were taken in real time with a confocal microscope, so as to compare and analyze Ca^2+ transients between groups. Then, the results of the cells obtained from normal people are shown in FIG. 8, while the results of the cells obtained from patients with DCMP heart failure are shown in FIG. 9. Normal in above FIG. 8 may refer to myocardial cells not treated with Tachycardia pacing, and 0, 0.1, 1 and 3 in FIGS. 8 and 9 may represent the concentrations of compound 43 (compound of Synthesis Example 1) in cells treated with Tachycardia pacing. […]

[6] = system: acetylated tubulin in atrial and ventricular tissues; assay: Acetylated tubulin in atrial and ventricular tissues in heart damage mimicking conditions (Tachycardia pacing); set-up: species or system Rabbit; settings: compound in physiological solution, western blot, compared to vehicle (FIGS. 10 and 11)
Method: Male rabbits were prepared in the same manner as in Example 1, and the rabbits were divided into a normal group (Sham), a drug-untreated group (vehicle), and a drug-treated group (Compound).
After that, the heart was evaluated by the Langendorff experimental method as in 2-1) of 2) in Example 2. For the drug-treated group, the heart was treated with the drug by administering compound 43 (compound according to Synthesis Example 1) to physiological solution as in 2-2) of 2) in Example 2.
Then, the atria and the ventricles were separated, and then proteins were isolated from each tissue. The expression of acetylated tubulin was analyzed for each protein through western blot, so as to compare the expression levels between groups, and the results thereof are shown in FIGS. 10 and 11. * may mean P<0.05, ** may refer to P<0.01, and *** may represent less than P<0.001.

Compound: O=C(N1CCS(=O)(=O)CC1)N(Cc1ccc(-c2nnc(C(F)F)o2)cc1F)c1ccc(F)cc1 [Compound 285, N-(4-(5-(difluoromethyl)-1,3,4-oxadiazol-2-yl)-2-fluorobenzyl)-N-(4-fluorophenyl)thiomorpholine-4-carboxamide 1,1-dioxide]
- concentration of acetyl tubulin in H9c2 cells [1]: increase the concentration of acetyl tubulin in H9c2 cells in a concentration-correlated manner

Compound: O=C(N1CCS(=O)(=O)CC1)N(Cc1ccc(-c2nnc(C(F)F)o2)cn1)c1ccccc1 [compound 43, N-((5-(5-(difluoromethyl)-1,3,4-oxadiazol-2-yl)pyridin-2-yl)methyl)-N-phenylthiomorpholine-4-carboxamide 1,1-dioxide]
- R-R interval, Average ([2]; 1 μM in physiological solution, ECG one hour later, after 50 Hz tachycardia pacing for 30 minutes): 240.8 ms
- electrocardiogram (ventricular functions) ([2]; 1 μM, tachycardia pacing (FIG. 3)): improved to a degree of the normal group (Control)
- cardioversion effect after the compound is removed ([2]; after wash out of 1 μM compound (FIG. 3)): maintained for at least one hour
- R-R interval, Average, Wash out ([2]; one hour after compound washed out of physiological solution, after 50 Hz tachycardia pacing): 239.9 ms
- concentration of acetyl tubulin in H9c2 cells [1]: increase the concentration of acetyl tubulin in H9c2 cells in a concentration-correlated manner
- expression of TGF-β in cardiac tissue [3]: reduced expression
- expression of α-SMA in cardiac tissue [3]: reduced expression
- Q-T interval ([4]; 1 μM): 125.4 ± 1.7 ms
- effect on QT interval compared to normal ECG (in words) [4]: not affected
- Ca2+ transients [5]: Ca^2+ transients are recovered
- expression of acetylated tubulin in atria and ventricles [6]: restored to that of the normal group (Sham)

Compound: CN(CCOc1ccc(NS(C)(=O)=O)cc1)CCc1ccc(NS(C)(=O)=O)cc1 [Dofetilide, dofetilide]
- Q-T interval ([4]; 0.3 μM): 199.2 ± 17.8 ms
- Q-T interval ([4]; 1 μM): 205.4 ± 26.3 ms
- effect on QT interval compared to normal ECG (in words) [4]: increased at both 0.3 μM and 1 μM

Compound: O=C(N1CCS(=O)(=O)CC1)N(Cc1ccc(-c2nnc(C(F)F)o2)cn1)c1cccc(Cl)c1 [Compound 239, N-(3-chlorophenyl)-N-((5-(5-(difluoromethyl)-1,3,4-oxadiazol-2-yl)pyridin-2-yl)methyl)thiomorpholine-4-carboxamide 1,1-dioxide]
- concentration of acetyl tubulin in H9c2 cells [1]: increase the concentration of acetyl tubulin in H9c2 cells in a concentration-correlated manner

Compound: O=C(N1CCS(=O)(=O)CC1)N(Cc1ccc(-c2nnc(C(F)F)o2)cn1)c1cccc(F)c1 [Compound 296, N-((5-(5-(difluoromethyl)-1,3,4-oxadiazol-2-yl)pyridin-2-yl)methyl)-N-(3-fluorophenyl)thiomorpholine-4-carboxamide 1,1-dioxide]
- concentration of acetyl tubulin in H9c2 cells [1]: increase the concentration of acetyl tubulin in H9c2 cells in a concentration-correlated manner

Compound: O=C(N1CCS(=O)(=O)CC1)N(Cc1ccc(-c2nnc(C(F)F)o2)cc1F)c1ccccc1 [Compound 40, N-(4-(5-(difluoromethyl)-1,3,4-oxadiazol-2-yl)-2-fluorobenzyl)-N-phenylthiomorpholine-4-carboxamide 1,1-dioxide]
- concentration of acetyl tubulin in H9c2 cells [1]: increase the concentration of acetyl tubulin in H9c2 cells in a concentration-correlated manner

Compound: O=C(N1CCS(=O)(=O)CC1)N(Cc1ccc(-c2nnc(C(F)F)o2)cn1)c1ccc(F)cc1 [Compound 295, N-((5-(5-(difluoromethyl)-1,3,4-oxadiazol-2-yl)pyridin-2-yl)methyl)-N-(4-fluorophenyl)thiomorpholine-4-carboxamide 1,1-dioxide]
- concentration of acetyl tubulin in H9c2 cells [1]: increase the concentration of acetyl tubulin in H9c2 cells in a concentration-correlated manner
